Source: US20240294541A1, “COMPOUNDS CONSTITUTING C20-MODIFIED SALINOMYCIN DERIVATIVES, A METHOD FOR OBTAINING THE SAME, A COMPOSITION CONTAINING THE SAME AND A USE OF SAID COMPOUNDS” (FILECLO SPOLKA Z OGRANICZONA ODPOWIEDZIALNOSCIA, priority 2021, published 2024)

Experiments:
Format in all cases: cell-based
A375 (human melanoma) = assay: In vitro cytotoxicity, SRB assay, A375; conditions: for IC50: Homo sapiens, A-375, 72 h with compound, SRB, n/a = non-active compound, read-out: A375 IC50; for A375 SI: selectivity coefficient vs normal BALB/3T3 cells
[1] = test system: BALB/3T3 (normal mouse fibroblasts); assay: In vitro cytotoxicity, SRB assay, normal BALB/3T3 fibroblasts; conditions: Mus musculus, BALB/3T3; normal cells; 72 h with compound, SRB; n/a = non-active compound; read-out: BALB/3T3 IC50
Hs294T (human melanoma) = assay: cells; conditions: for IC50: Homo sapiens, Hs 294T, 72 h with compound, SRB, n/a = non-active compound, read-out: Hs294T IC50; for Hs294T SI: selectivity coefficient vs normal BALB/3T3 cells
[2] = test system: A2780 (human ovarian cancer); assay: In vitro cytotoxicity, SRB assay, A2780; conditions: for IC50: Homo sapiens, A2780, 72 h with compound, SRB, n/a = non-active compound, read-out: A2780 IC50; for A2780 SI: selectivity coefficient vs normal BALB/3T3 cells
[3] = test system: KG-1 (human acute myeloid leukaemia); assay: In vitro cytotoxicity, MTT assay, KG-1; conditions: for IC50: Homo sapiens, 72 h with compound, MTT, n/a = non-active compound; for KG-1 SI: selectivity coefficient vs normal BALB/3T3 cells
[4] = test system: PLC/PRF/5 (human liver cancer); assay: cells; conditions: for IC50: Homo sapiens, PLC-PRF-5, 72 h with compound, SRB, n/a = non-active compound, read-out: PLC/PRF/5 IC50; for PLC/PRF/5 SI: selectivity coefficient vs normal BALB/3T3 cells
[5] = test system: NCI-H23 (human lung cancer); assay: In vitro cytotoxicity, SRB assay, NCI-H23; conditions: for IC50: Homo sapiens, NCI-H23, 72 h with compound, SRB, n/a = non-active compound, read-out: NCI-H23 IC50; for NCI-H23 SI: selectivity coefficient vs normal BALB/3T3 cells
[6] = test system: A2780Cis (cisplatin-resistant human ovarian cancer); assay: In vitro cytotoxicity, SRB assay, A2780Cis; conditions: for IC50: Homo sapiens, A2780cis, 72 h, read-out: A2780Cis IC50 (nM)
[7] = test system: MIA PaCa-2 (human pancreatic cancer); assay: cells; conditions: for IC50: Homo sapiens, MIA PaCa-2, 72 h with compound, SRB, n/a = non-active compound, read-out: MIA PaCa-2 IC50; for MIA PaCa-2 SI: selectivity coefficient vs normal BALB/3T3 cells
[8] = test system: SNU-16 (human gastric cancer); assay: cells; conditions: for IC50: Homo sapiens, SNU-16, 72 h with compound, MTT, n/a = non-active compound, read-out: SNU-16 IC50; for SNU-16 SI: selectivity coefficient vs normal BALB/3T3 cells
[9] = test system: PFSK-1 (malignant primitive neuroectodermal tumour); assay: In vitro cytotoxicity, SRB assay, PFSK-1; conditions: for IC50: Homo sapiens, PFSK-1, 72 h with compound, SRB, n/a = non-active compound, read-out: PFSK-1 IC50; for PFSK-1 SI: selectivity coefficient vs normal BALB/3T3 cells

CC[C@@H](C(=O)[C@@H](C)[C@@H](O)[C@H](C)[C@@H]1O[C@@H]([C@@H](CC)C(=O)O)CC[C@@H]1C)[C@H]1O[C@]2(C=C[C@@H](NC(=O)NCCc3ccccc3)[C@]3(CC[C@@](C)([C@H]4CC[C@](O)(CC)[C@H](C)O4)O3)O2)[C@H](C)C[C@@H]1C [FLC-00362-1]
IC50 (A375 (human melanoma)): 281 nM | A375 SI (A375 (human melanoma)): 0.5 | IC50 [1]: 153 nM | IC50 (Hs294T (human melanoma)): 473 nM | Hs294T SI (Hs294T (human melanoma)): 0.3 | IC50 [2]: 11.3 nM | A2780 SI [2]: 13.6 | IC50 [3]: 36.8 nM | KG-1 SI [3]: 4.2 | IC50 [4]: 32 nM | PLC/PRF/5 SI [4]: 4.8 | IC50 [5]: 62.4 nM | NCI-H23 SI [5]: 2.5 | A2780Cis RI [6]: 1.1 | A2780Cis SI [6]: 12.9 | IC50 [6]: 11.9 nM | IC50 [7]: 73.8 nM | MIA PaCa-2 SI [7]: 2.1 | IC50 [8]: 17 nM | SNU-16 SI [8]: 9.0 | IC50 [9]: 38.4 nM | PFSK-1 SI [9]: 4.0

CC[C@@H](C(=O)[C@@H](C)[C@@H](O)[C@H](C)[C@@H]1O[C@@H]([C@@H](CC)C(=O)O)CC[C@@H]1C)[C@H]1O[C@]2(C=C[C@@H](NC(=O)Nc3cc(C(F)(F)F)cc(C(F)(F)F)c3)[C@]3(CC[C@@](C)([C@H]4CC[C@](O)(CC)[C@H](C)O4)O3)O2)[C@H](C)C[C@@H]1C [FLC-00344-1 Na]
IC50 (A375 (human melanoma)): 2310 nM | A375 SI (A375 (human melanoma)): 0.5 | IC50 [1]: 1060 nM | IC50 (Hs294T (human melanoma)): 2570 nM | Hs294T SI (Hs294T (human melanoma)): 0.4 | IC50 [2]: 21 nM | A2780 SI [2]: 50.5 | IC50 [3]: 286 nM | KG-1 SI [3]: 3.7 | IC50 [4]: 1290 nM | PLC/PRF/5 SI [4]: 0.8 | IC50 [5]: 285 nM | NCI-H23 SI [5]: 3.7 | A2780Cis RI [6]: 1.2 | A2780Cis SI [6]: 43.8 | IC50 [6]: 24.3 nM | IC50 [7]: 383 nM | MIA PaCa-2 SI [7]: 2.8 | IC50 [8]: 106 nM | SNU-16 SI [8]: 10.0 | IC50 [9]: 112 nM | PFSK-1 SI [9]: 9.5

CCOC(=O)CNC(=S)N[C@@H]1C=C[C@]2(O[C@H]([C@@H](CC)C(=O)[C@@H](C)[C@@H](O)[C@H](C)[C@@H]3O[C@@H]([C@@H](CC)C(=O)O)CC[C@@H]3C)[C@@H](C)C[C@H]2C)O[C@@]12CC[C@@](C)([C@H]1CC[C@](O)(CC)[C@H](C)O1)O2 [FLC-00352-1]
IC50 (A375 (human melanoma)): 459 nM | A375 SI (A375 (human melanoma)): 0.3 | IC50 [1]: 115 nM | IC50 (Hs294T (human melanoma)): 416 nM | Hs294T SI (Hs294T (human melanoma)): 0.3 | IC50 [2]: 2.14 nM | A2780 SI [2]: 53.8 | IC50 [3]: 30 nM | KG-1 SI [3]: 3.8 | IC50 [4]: 32.9 nM | PLC/PRF/5 SI [4]: 3.5 | IC50 [5]: 234 nM | NCI-H23 SI [5]: 0.5 | A2780Cis RI [6]: 1.8 | A2780Cis SI [6]: 30.4 | IC50 [6]: 3.77 nM | IC50 [7]: 50.9 nM | MIA PaCa-2 SI [7]: 2.3 | IC50 [8]: 52.8 nM | SNU-16 SI [8]: 2.2 | IC50 [9]: 45.2 nM | PFSK-1 SI [9]: 2.5

CC[C@@H](C(=O)[C@@H](C)[C@@H](O)[C@H](C)[C@@H]1O[C@@H]([C@@H](CC)C(=O)O)CC[C@@H]1C)[C@H]1O[C@]2(C=C[C@@H](NC(=O)NC3CCCC3)[C@]3(CC[C@@](C)([C@H]4CC[C@](O)(CC)[C@H](C)O4)O3)O2)[C@H](C)C[C@@H]1C [FLC-00351-1]
IC50 (A375 (human melanoma)): 104 nM | A375 SI (A375 (human melanoma)): 0.6 | IC50 [1]: 66.6 nM | IC50 (Hs294T (human melanoma)): 360 nM | Hs294T SI (Hs294T (human melanoma)): 0.2 | IC50 [2]: 0.45 nM | A2780 SI [2]: 148.7 | IC50 [3]: 23.7 nM | KG-1 SI [3]: 2.8 | IC50 [4]: 22.3 nM | PLC/PRF/5 SI [4]: 3.0 | IC50 [5]: 112 nM | NCI-H23 SI [5]: 0.6 | A2780Cis RI [6]: 1.2 | A2780Cis SI [6]: 125.6 | IC50 [6]: 0.53 nM | IC50 [7]: 22 nM | MIA PaCa-2 SI [7]: 3.0 | IC50 [8]: 24.5 nM | SNU-16 SI [8]: 2.7 | IC50 [9]: 10.7 nM | PFSK-1 SI [9]: 6.2

CC[C@@H](C(=O)[C@@H](C)[C@@H](O)[C@H](C)[C@@H]1O[C@@H]([C@@H](CC)C(=O)O)CC[C@@H]1C)[C@H]1O[C@]2(C=C[C@@H](NC(=S)Nc3ccc(Cl)cc3)[C@]3(CC[C@@](C)([C@H]4CC[C@](O)(CC)[C@H](C)O4)O3)O2)[C@H](C)C[C@@H]1C [FLC-00378-1]
IC50 (A375 (human melanoma)): 36.6 nM | A375 SI (A375 (human melanoma)): 0.3 | IC50 [1]: 10.1 nM | IC50 (Hs294T (human melanoma)): 29.4 nM | Hs294T SI (Hs294T (human melanoma)): 0.3 | IC50 [2]: 0.55 nM | A2780 SI [2]: 18.3 | IC50 [3]: 19.1 nM | KG-1 SI [3]: 0.5 | IC50 [4]: 2.58 nM | PLC/PRF/5 SI [4]: 3.9 | IC50 [5]: 4.12 nM | NCI-H23 SI [5]: 2.5 | A2780Cis RI [6]: 0.3 | A2780Cis SI [6]: 57.0 | IC50 [6]: 0.18 nM | IC50 [7]: 18.4 nM | MIA PaCa-2 SI [7]: 0.5 | IC50 [8]: 3.21 nM | SNU-16 SI [8]: 3.2 | IC50 [9]: 3.28 nM | PFSK-1 SI [9]: 3.1
